Experimental data as given in ChEMBL document CHEMBL5715956, “Selective Targeting of Bromodomains of the Bromodomain-PHD Fingers Family Impairs Osteoclast Differentiation” (ACS Chem Biol, 2017).

Key:
[1] = molecular target: Nuclear body protein SP140 (Homo sapiens) (UniProt Q13342); conditions: dose 10.0 µM
[2] = molecular target: Bromodomain adjacent to zinc finger domain protein 2B (Homo sapiens) (UniProt Q9UIF8); conditions: dose 10.0 µM
[3] = molecular target: Bromodomain-containing protein 3 (Homo sapiens) (UniProt Q15059); conditions: dose 10.0 µM
[4] = molecular target: Beta-1 adrenergic receptor (Homo sapiens) (UniProt P08588); experiment: Binding affinity to Beta1 (unknown origin) assessed as specific binding at 10 uM relative to control
[5] = molecular target: CREB-binding protein (Homo sapiens) (UniProt Q92793); conditions: dose 10.0 µM
[6] = molecular target: Transcription intermediary factor 1-alpha (Homo sapiens) (UniProt O15164); conditions: dose 10.0 µM
[7] = molecular target: Adrenergic receptor alpha-2 (Homo sapiens) (UniProt P08913+P18825+P18089); experiment: Inhibition of Alpha 2 receptor (unknown origin) at 10 uM relative to control; assay type: protein assay
[8] = molecular target: Histone acetyltransferase p300 (Homo sapiens) (UniProt Q09472); conditions: dose 10.0 µM
[9] = molecular target: Histone acetyltransferase KAT2A (Homo sapiens) (UniProt Q92830); conditions: dose 10.0 µM
[10] = molecular target: Bromodomain-containing protein 3 (Homo sapiens) (UniProt Q15059); conditions: dose 10.0 µM; remark: listed apart in the source
[11] = organism: Homo sapiens; conditions: dose 10.0 µM
[12] = molecular target: T1, Peregrin (Homo sapiens) (UniProt P55201); experiment: Binding affinity to […] (unknown origin) assessed as change in entropy at 17 uM by Isothermal titration calorimetry
T1 sequence (whole entry): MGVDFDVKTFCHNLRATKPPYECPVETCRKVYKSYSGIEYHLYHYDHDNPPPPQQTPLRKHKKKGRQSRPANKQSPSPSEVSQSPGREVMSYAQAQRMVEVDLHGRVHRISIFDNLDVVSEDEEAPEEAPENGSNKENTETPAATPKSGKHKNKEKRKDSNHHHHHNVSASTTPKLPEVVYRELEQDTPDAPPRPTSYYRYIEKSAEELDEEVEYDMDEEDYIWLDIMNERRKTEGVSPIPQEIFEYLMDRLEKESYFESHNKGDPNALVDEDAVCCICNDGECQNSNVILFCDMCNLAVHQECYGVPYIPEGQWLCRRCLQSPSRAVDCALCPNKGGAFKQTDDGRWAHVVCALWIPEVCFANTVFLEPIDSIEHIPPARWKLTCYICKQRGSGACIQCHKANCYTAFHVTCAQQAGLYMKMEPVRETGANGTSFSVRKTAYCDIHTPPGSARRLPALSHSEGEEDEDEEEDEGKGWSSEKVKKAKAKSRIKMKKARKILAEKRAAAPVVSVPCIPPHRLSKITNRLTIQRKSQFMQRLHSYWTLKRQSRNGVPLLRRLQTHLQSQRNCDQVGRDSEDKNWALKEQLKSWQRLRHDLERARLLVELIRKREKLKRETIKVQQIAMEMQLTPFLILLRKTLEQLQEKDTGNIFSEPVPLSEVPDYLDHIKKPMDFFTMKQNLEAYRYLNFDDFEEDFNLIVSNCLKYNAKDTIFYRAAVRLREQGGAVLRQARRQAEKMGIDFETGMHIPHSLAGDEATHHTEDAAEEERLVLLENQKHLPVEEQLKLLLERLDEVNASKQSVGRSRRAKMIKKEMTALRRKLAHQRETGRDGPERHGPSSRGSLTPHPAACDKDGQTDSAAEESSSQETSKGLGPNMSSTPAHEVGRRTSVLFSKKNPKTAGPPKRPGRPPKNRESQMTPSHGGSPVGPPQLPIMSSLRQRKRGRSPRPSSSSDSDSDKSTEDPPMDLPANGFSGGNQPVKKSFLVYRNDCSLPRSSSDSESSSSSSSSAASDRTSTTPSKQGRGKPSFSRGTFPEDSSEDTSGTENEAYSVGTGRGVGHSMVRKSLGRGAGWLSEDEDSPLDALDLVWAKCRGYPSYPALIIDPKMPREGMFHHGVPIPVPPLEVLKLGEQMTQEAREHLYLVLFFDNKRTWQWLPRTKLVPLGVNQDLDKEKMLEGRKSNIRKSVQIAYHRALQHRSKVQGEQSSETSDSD

[13] = molecular target: Beta-2 adrenergic receptor (Homo sapiens) (UniProt P07550); experiment: Inhibition of Beta2 (unknown origin) at 10 uM relative to control
[14] = molecular target: T2, Bromodomain-containing protein 1 (Homo sapiens) (UniProt O95696); experiment: Binding affinity to BRPF2 (unknown origin) assessed as association constant at 12 uM by Isothermal titration calorimetry
T2 sequence (whole entry): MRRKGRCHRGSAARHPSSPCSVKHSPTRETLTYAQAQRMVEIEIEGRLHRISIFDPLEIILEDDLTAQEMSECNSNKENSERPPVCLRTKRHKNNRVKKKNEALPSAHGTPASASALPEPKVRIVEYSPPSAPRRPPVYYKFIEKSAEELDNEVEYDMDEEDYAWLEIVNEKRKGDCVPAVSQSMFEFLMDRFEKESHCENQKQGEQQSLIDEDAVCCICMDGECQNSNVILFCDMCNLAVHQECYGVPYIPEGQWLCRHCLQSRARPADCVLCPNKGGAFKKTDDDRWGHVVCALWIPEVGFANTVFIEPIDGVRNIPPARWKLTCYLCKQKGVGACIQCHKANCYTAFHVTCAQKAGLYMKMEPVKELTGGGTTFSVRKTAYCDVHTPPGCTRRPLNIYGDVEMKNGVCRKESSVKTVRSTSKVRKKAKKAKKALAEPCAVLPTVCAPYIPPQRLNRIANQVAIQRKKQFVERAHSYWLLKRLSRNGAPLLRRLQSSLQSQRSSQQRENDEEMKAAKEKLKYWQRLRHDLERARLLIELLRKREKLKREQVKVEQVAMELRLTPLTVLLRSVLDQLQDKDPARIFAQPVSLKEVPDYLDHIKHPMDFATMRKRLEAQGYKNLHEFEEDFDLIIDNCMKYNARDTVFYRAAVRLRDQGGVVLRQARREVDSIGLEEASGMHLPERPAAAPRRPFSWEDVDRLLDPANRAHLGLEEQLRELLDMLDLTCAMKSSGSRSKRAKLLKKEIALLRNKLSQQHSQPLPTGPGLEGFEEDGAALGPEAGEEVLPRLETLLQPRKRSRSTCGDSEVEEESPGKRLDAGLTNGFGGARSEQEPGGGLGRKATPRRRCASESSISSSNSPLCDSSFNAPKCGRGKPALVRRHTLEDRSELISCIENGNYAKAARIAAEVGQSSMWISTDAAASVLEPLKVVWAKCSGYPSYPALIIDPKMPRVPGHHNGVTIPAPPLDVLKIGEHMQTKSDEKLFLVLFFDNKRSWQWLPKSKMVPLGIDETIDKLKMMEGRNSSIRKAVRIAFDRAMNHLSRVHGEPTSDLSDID

Sequence of Bromodomain-containing protein 3 (Homo sapiens) (Q15059 2-726 limits assumed): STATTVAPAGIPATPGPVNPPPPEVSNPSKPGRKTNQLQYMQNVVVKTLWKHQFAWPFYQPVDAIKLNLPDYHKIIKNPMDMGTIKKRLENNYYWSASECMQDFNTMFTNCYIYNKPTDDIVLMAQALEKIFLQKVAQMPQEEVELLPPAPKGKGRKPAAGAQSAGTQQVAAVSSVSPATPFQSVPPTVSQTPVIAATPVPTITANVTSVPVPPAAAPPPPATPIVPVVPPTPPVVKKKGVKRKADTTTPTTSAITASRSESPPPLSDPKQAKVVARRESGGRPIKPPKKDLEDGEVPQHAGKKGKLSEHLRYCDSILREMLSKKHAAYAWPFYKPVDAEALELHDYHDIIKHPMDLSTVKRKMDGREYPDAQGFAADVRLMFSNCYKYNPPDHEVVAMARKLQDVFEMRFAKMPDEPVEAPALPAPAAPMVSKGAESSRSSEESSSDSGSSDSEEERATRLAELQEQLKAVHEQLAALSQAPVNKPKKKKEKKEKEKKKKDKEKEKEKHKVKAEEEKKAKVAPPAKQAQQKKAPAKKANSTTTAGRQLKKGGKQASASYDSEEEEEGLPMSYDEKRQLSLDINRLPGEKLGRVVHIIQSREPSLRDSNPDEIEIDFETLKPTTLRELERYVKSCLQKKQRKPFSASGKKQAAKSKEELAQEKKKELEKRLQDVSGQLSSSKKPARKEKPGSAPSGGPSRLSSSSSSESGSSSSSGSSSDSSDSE
Sequence of Histone acetyltransferase KAT2A (Homo sapiens) (Q92830 2-837 limits assumed): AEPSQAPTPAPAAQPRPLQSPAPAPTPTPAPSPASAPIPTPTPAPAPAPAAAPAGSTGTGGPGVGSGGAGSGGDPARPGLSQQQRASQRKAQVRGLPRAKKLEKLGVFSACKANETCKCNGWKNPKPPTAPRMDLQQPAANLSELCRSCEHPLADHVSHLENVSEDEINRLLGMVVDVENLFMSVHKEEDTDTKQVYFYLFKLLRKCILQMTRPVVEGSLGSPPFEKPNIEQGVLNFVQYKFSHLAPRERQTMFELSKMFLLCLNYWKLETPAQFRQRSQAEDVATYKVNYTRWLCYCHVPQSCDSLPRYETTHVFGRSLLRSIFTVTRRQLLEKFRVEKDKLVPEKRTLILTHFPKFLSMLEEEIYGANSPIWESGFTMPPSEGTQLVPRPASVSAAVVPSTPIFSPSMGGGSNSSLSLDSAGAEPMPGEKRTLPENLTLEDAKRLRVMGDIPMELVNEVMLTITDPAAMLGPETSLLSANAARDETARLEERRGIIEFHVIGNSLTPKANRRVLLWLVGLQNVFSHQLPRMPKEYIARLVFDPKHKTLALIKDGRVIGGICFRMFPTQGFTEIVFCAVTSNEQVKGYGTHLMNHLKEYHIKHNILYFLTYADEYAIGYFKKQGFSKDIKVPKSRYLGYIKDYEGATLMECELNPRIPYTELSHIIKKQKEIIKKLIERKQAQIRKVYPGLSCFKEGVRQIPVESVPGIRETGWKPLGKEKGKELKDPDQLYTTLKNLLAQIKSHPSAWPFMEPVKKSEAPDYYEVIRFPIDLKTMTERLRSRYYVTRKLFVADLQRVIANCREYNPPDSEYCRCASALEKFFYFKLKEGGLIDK
Sequence of Transcription intermediary factor 1-alpha (Homo sapiens) (O15164 whole entry): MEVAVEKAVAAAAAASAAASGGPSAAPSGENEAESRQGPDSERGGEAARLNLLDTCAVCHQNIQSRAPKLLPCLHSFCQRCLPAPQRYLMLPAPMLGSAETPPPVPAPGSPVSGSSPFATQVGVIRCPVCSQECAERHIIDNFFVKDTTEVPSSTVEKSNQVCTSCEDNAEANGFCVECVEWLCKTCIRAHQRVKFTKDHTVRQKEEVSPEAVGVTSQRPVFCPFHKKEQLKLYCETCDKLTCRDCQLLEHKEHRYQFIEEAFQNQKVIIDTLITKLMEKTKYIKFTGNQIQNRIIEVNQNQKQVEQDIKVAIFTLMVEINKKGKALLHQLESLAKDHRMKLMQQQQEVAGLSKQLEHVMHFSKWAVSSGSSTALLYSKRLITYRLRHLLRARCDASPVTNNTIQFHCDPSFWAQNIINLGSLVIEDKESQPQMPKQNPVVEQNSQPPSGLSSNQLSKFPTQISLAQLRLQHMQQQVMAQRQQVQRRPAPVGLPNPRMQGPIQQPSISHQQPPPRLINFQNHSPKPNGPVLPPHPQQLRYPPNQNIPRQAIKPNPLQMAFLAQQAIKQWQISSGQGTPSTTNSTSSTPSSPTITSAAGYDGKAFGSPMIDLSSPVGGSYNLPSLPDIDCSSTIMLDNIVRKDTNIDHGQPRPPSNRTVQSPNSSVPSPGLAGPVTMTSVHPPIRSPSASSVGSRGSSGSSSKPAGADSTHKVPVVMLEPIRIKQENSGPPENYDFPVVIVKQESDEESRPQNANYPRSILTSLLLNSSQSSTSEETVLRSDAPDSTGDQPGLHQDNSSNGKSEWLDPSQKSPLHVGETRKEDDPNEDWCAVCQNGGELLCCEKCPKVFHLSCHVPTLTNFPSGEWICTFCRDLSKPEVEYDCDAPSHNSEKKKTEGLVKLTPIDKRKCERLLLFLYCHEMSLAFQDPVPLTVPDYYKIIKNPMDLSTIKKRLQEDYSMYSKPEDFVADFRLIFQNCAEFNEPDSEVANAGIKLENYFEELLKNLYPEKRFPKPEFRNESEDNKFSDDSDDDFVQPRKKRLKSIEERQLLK
Sequence of Beta-1 adrenergic receptor (Homo sapiens) (P08588 whole entry, looked up): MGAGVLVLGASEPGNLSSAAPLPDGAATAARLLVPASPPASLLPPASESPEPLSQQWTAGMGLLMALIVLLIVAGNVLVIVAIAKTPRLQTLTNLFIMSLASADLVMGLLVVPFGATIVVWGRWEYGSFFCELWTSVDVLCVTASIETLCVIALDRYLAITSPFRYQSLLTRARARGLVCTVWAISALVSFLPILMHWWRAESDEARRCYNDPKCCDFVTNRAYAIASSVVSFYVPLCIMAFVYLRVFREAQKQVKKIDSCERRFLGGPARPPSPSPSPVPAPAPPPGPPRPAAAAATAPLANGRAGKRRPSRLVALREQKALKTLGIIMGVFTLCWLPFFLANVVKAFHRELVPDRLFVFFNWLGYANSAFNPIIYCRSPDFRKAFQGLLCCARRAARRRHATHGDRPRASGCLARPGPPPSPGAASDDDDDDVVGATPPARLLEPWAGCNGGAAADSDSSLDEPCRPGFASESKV
Sequence of Beta-2 adrenergic receptor (Homo sapiens) (P07550 whole entry, looked up): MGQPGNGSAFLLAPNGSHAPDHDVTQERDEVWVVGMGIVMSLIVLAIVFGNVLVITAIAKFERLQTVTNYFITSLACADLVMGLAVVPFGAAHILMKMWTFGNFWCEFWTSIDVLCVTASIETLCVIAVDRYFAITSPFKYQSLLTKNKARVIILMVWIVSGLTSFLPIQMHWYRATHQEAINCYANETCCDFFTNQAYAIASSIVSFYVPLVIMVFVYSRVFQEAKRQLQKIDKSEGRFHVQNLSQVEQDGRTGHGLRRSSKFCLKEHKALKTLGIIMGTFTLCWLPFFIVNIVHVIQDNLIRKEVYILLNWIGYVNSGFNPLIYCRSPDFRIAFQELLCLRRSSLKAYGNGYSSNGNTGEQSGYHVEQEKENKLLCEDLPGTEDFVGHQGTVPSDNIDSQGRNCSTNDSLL
Sequence of Nuclear body protein SP140 (Homo sapiens) (Q13342 whole entry, the tested form may be a part): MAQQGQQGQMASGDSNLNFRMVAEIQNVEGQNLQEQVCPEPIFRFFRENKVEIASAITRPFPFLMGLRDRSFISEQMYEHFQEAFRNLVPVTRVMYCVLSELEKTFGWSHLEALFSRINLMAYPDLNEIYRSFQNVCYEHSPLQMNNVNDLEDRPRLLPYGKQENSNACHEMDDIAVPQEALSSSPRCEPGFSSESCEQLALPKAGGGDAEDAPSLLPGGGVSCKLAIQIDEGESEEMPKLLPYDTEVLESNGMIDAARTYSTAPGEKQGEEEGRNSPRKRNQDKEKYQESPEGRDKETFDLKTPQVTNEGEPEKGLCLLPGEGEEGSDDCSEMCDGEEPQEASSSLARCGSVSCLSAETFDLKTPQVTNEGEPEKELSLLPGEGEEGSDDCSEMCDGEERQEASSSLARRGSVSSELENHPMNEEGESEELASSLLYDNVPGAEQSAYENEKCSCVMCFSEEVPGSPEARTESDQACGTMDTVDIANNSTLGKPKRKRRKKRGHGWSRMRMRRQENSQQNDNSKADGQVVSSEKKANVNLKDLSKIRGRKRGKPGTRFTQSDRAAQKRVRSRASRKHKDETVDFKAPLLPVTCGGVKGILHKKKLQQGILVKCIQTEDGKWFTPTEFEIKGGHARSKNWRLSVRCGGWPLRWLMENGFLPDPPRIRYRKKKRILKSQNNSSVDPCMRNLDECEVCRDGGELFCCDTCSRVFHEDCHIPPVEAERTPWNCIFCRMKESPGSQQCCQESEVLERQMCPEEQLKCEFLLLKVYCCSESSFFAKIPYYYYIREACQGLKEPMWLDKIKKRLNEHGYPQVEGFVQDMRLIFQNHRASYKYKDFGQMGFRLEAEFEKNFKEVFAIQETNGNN

ΔTm [1]: 0.1 °C
ΔTm [2]: 0.9 °C
ΔTm [3]: 1.6 °C
Activity [4]: 92.6%
ΔTm [5]: 0.4 °C
ΔTm [6]: 1.6 °C
inhibition [7]: -3%
ΔTm [8]: 0.7 °C
ΔTm [9]: -0.4 °C
ΔTm [10]: 1.4 °C
ΔTm [11]: 0.2 °C
deltaS [12]: -0.012 kcal/mol/K
inhibition [13]: 8%
Ka [14]: 1.98 10^6 M^-1
Structure (SMILES): COc1cc2c(cc1NS(=O)(=O)c1ccc(Br)cc1C)n(C)c(=O)n2C
